From patent US20240018161A1, “MODULATORS OF CYSTIC FIBROSIS TRANSMEMBRANE CONDUCTANCE REGULATOR” (VERTEX PHARMACEUTICALS INCORPORATED, priority 2020, published 2024)
Where two headings read alike, the source gives them in different places. Each block holds one molecule with its values, some of them ahead of it.

Legend:
[1] = target: CFTR-mediated chloride transport in human intestinal epithelial enteroid cells (Homo sapiens, UniProt P13569); assay: Membrane potential dye, Enteroid Assay A; format: cell-based
Sequence of CFTR-mediated chloride transport in human intestinal epithelial enteroid cells (P13569 with tags, fused parts or gaps DEL508-508): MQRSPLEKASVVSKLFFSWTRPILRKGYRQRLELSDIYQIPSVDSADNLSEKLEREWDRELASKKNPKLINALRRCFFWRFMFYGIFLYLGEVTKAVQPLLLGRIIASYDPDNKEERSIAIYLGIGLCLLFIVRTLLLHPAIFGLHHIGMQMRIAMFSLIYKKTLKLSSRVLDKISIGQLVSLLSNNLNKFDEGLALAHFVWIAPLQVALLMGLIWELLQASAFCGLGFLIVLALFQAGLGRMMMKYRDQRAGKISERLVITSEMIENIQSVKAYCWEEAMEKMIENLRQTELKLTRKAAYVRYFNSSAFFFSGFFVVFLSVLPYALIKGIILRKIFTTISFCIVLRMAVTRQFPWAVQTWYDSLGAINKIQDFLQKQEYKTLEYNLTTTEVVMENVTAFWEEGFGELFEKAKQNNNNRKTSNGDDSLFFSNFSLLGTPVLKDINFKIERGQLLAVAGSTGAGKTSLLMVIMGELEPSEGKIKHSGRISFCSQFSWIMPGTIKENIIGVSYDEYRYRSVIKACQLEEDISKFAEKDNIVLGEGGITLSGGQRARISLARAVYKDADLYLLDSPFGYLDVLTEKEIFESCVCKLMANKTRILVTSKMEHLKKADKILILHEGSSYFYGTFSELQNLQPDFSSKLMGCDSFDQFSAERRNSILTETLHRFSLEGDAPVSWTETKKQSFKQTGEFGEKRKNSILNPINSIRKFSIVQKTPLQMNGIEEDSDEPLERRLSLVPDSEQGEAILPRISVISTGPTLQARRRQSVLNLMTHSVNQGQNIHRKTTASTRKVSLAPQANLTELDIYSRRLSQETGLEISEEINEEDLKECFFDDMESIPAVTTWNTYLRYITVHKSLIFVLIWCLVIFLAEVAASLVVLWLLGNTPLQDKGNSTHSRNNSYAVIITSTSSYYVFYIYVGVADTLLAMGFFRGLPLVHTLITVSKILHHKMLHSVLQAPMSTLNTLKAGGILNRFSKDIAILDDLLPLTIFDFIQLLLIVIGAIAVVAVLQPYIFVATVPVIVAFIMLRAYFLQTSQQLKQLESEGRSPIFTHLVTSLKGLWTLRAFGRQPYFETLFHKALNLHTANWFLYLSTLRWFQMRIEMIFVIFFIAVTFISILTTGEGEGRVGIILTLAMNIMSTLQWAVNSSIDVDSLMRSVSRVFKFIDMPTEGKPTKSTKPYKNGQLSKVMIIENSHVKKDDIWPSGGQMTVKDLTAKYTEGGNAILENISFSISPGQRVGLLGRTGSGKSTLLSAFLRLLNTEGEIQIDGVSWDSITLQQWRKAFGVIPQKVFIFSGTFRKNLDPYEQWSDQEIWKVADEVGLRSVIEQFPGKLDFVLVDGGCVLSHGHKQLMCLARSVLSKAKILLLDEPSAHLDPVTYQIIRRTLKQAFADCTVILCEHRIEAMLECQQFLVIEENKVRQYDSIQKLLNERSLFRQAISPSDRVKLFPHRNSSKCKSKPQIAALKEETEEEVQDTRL
Procedure, shortened: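 Membrane potential dye (20 μM methyl oxonol, with 30 μM CaCCinh-A01 and 30 μM Chicago Sky Blue) loaded 25 min at room temperature into ROCK-inhibitor-seeded human enteroid cells. Chloride-free stimulation buffer triggered transport, followed by 15 min fluorescence. % Activity relative to 3 μM/3 μM/300 nM triple-combination control.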

[2] = from Cc1cccc(C)c1-c1cc(Cl)nc(NS(=O)(=O)c2cccc(C(=O)N3CCN(C(C)C(C)(C)C)C[C@@H](O)C3)c2)n1, snar bond, 13-membered ring, NaH, DMF, 31.4 mM, 0.0 °C, 7.0 h
[3] = from Cc1cccc(C)c1-c1cc(OCC2c3ccc(C(C)(C)C)cc3CNC2C)nc(NS(=O)(=O)c2cccc(C(=O)O)c2)n1, amide bond, 14-membered ring, HATU/TEA, DMF, 44.8 mM, 50.0 °C, 0.5 h, 2 steps

Molecule: Cc1cccc(C)c1-c1cc2nc(n1)NS(=O)(=O)c1cccc(c1)C(=O)N1C(c3cncc(N(C)C4CCC4)n3)CC[C@H](O2)[C@H]1CC(C)C (some centres unmarked)
ring closure, yield after HPLC (from Cc1cccc(C)c1-c1cc(Cl)nc(NS(=O)(=O)c2cccc(C(=O)N3C(c4cncc(N(C)C5CCC5)n4)CC[C@H](O)[C@H]3CC(C)C)c2)n1, snar bond, 13-membered ring, NaH, DMF, 21.5 mM, 24.0 h): 4% | ring closure, yield after HPLC (from Cc1cccc(C)c1-c1cc(O[C@H]2CCC(c3cncc(N(C)C4CCC4)n3)N[C@@H]2CC(C)C)nc(NS(=O)(=O)c2cccc(C(=O)O)c2)n1, amide bond, 13-membered ring, CDMT/NMM, DMF, 16.6 mM, 48.0 h, 2 steps): 31.6%

Molecule: Cc1cccc(C)c1-c1cc2nc(n1)NS(=O)(=O)c1cccc(c1)C(=O)N1CC(CCC1c1ccccc1)O2 (centres unmarked)
ring closure, yield after HPLC (from Cc1cccc(C)c1-c1cc(OC2CCC(c3ccccc3)NC2)nc(NS(=O)(=O)c2cccc(C(=O)O)c2)n1, amide bond, 13-membered ring, HATU/DIEA, DMF, 156.0 mM, 25.0 °C, 0.083 h, 3 steps): 37% | ring closure, yield after HPLC (from Cc1cccc(C)c1-c1cc(OC2CCC(c3ccccc3)NC2)nc(NS(=O)(=O)c2cccc(C(=O)Oc3c(F)c(F)c(F)c(F)c3F)c2)n1, amide bond, 13-membered ring, thermal (OPfp ester), NMP, 36.0 mM, 130.0 °C, 1.0 h, 4 steps): 7%

Molecule: Cc1cccc(C)c1-c1cc2nc(n1)NS(=O)(=O)c1cccc(c1)C(=O)N1CC(O2)C2CCCN(C)C2C1 (centres unmarked)
ring closure, yield after HPLC (from Cc1cccc(C)c1-c1cc(OC2CNCC3C2CCCN3C)nc(NS(=O)(=O)c2cccc(C(=O)O)c2)n1, amide bond, 13-membered ring, HATU/DIEA, DMF, 27.2 mM, 25.0 °C, 0.67 h): 10%

Molecule: Cc1cccc(C)c1-c1cc2nc(n1)NS(=O)(=O)c1cccc(c1)C(=O)N1CC(O2)c2ccccc2C1CC(C)C (centres unmarked)
ring closure, yield after HPLC (from Cc1cccc(C)c1-c1cc(OC2CNC(CC(C)C)c3ccccc32)nc(NS(=O)(=O)c2cccc(C(=O)O)c2)n1, amide bond, 13-membered ring, HATU/DIEA, DMF, 256.0 mM, 1.0 h): 8%

Molecule: Cc1cccc(C)c1-c1cc2nc(n1)NS(=O)(=O)c1cccc(c1)C(=O)N1CCCC(O2)C1CC(C)C (centres unmarked)
ring closure, yield after HPLC (from Cc1cccc(C)c1-c1cc(Cl)nc(NS(=O)(=O)c2cccc(C(=O)N3CCCC(O)C3CC(C)C)c2)n1, snar bond, 13-membered ring, NaH, DMF, 17.2 mM, 25.0 °C, 40.0 h): 17% | ring closure, yield after HPLC (from Cc1cccc(C)c1-c1cc(Cl)nc(NS(=O)(=O)c2cccc(C(=O)N3CCCC(O)C3CC(C)C)c2)n1, snar bond, 13-membered ring, NaH, DMF, 18.3 mM, 25.0 °C, 24.0 h): 24%

Molecule: Cc1cccc(C)c1-c1cc2nc(n1)NS(=O)(=O)c1cccc(c1)C(=O)N1CCOC[C@@H]1C(Cc1ccccc1)O2 (some centres unmarked)
ring closure, yield after HPLC (from Cc1cccc(C)c1-c1cc(OC(Cc2ccccc2)[C@H]2COCCN2)nc(NS(=O)(=O)c2cccc(C(=O)O)c2)n1, amide bond, 13-membered ring, HATU/DIEA, DMF, 61.0 mM, 25.0 °C, 1.5 h): 74%

Molecule: Cc1cccc(C)c1-c1cc2nc(n1)NS(=O)(=O)c1cccc(c1)C(=O)N1Cc3cc(C(C)(C)C)ccc3[C@H](O2)[C@H]1CC(C)(C)C
ring closure, yield after HPLC (from Cc1cccc(C)c1-c1cc(O[C@H]2c3ccc(C(C)(C)C)cc3CN[C@@H]2CC(C)(C)C)nc(NS(=O)(=O)c2cccc(C(=O)O)c2)n1, amide bond, 13-membered ring, HATU/NaOtBu, DMF/THF, 0.25 h, 2 steps): 3%

Molecule: Cc1cccc(C)c1-c1cc2nc(n1)NS(=O)(=O)c1cccc(c1)C(=O)N1Cc3cc(C(F)(F)F)ccc3[C@@H](O2)[C@H]1CC(C)C
ring closure, yield after HPLC (from Cc1cccc(C)c1-c1cc(O[C@@H]2c3ccc(C(F)(F)F)cc3CN[C@@H]2CC(C)C)nc(NS(=O)(=O)c2cccc(C(=O)O)c2)n1, amide bond, 13-membered ring, HATU/NaOtBu, DMF/THF, 0.25 h, 3 steps): 3%

Molecule: Cc1cccc(C)c1-c1cc2nc(n1)NS(=O)(=O)c1cccc(c1)C(=O)N1Cc3cc(C(F)(F)F)ccc3[C@H](O2)[C@H]1CC(C)C
ring closure, yield after HPLC (from Cc1cccc(C)c1-c1cc(O[C@H]2c3ccc(C(F)(F)F)cc3CN[C@@H]2CC(C)C)nc(NS(=O)(=O)c2cccc(C(=O)O)c2)n1, amide bond, 13-membered ring, HATU/NaOtBu, DMF/THF, 0.25 h, 3 steps): 5%

Molecule: Cc1cccc(C)c1-c1cc2nc(n1)NS(=O)(=O)c1cccc(c1)C(=O)N1Cc3ccncc3C(C1)O2 (centres unmarked)
ring closure, yield after HPLC (from Cc1cccc(C)c1-c1cc(OC2CNCc3ccncc32)nc(NS(=O)(=O)c2cccc(C(=O)O)c2)n1, amide bond, 13-membered ring, HATU/DIEA, DMF, 23.5 mM, 0.5 h, 2 steps): 3%

Molecule: Cc1ccccc1-c1cc2nc(n1)NS(=O)(=O)c1cccc(c1)C(=O)N1Cc3ccccc3[C@H](O2)[C@H]1CC(C)C
ring closure, yield after HPLC (from Cc1ccccc1-c1cc(O[C@H]2c3ccccc3CN[C@@H]2CC(C)C)nc(NS(=O)(=O)c2cccc(C(=O)O)c2)n1, amide bond, 13-membered ring, HATU/DIEA, DMF, 190.0 mM, 0.5 h, 3 steps): 18%

Molecule: 12-(2,6-dimethylphenyl)-23-(2-methylpropyl)-15-oxa-8λ^6-thia-1,9,11,25-tetraazapentacyclo[14.7.1.13,7.110,14.017,22]hexacosa-3(26),4,6,10(25),11,13,17,19,21-nonaene-2,8,8-trione, major diastereomer
ring closure, yield after HPLC (amide bond, 13-membered ring, HATU/DIEA, DMF, 115.0 mM): 53%

EC50 ([1]; enteroid cells incubated with test compound 18-24 hours, acute 10 μM forskolin and 300 nM N-[2,4-bis(1,1-dimethylethyl)-5-hydroxyphenyl]-1,4-dihydro-4-oxoquinoline-3-carboxamide, read-out: Ent. A EC50): 3 to 30 µM
Molecule: Cc1cccc(C)c1-c1cc2nc(n1)NS(=O)(=O)c1cccc(c1)C(=O)N1Cc3cccnc3C(C1)O2 (single isomer, unassigned) [Compound 195, 12-(2,6-dimethylphenyl)-15-oxa-8λ^6-thia-1,9,11,18,25-pentaazapentacyclo[14.7.1.13,7.110,14.017,22]hexacosa-3,5,7(26),10(25),11,13,17,19,21-nonaene-2,8,8-trione]
ring closure, yield after HPLC (from Cc1cccc(C)c1-c1cc(OC2CNCc3cccnc32)nc(NS(=O)(=O)c2cccc(C(=O)O)c2)n1, amide bond, 13-membered ring, HATU/DIEA, DMF, 8.0 mM, 1.0 h): 76% | Ent. A Max Activity (%) ([1]; percentage of chloride transport of triple combination control (3 μM N-[(6-amino-2-pyridyl)sulfonyl]-6-(3-fluoro-5-isobutoxy-phenyl)-2-[(4S)-2,2,4-trimethylpyrrolidin-1-yl]pyridine-3-carboxamide based)): ++ (++ is 30-60%)

Molecule: Cc1cccc(C)c1-c1cc2nc(n1)NS(=O)(=O)c1cccc(c1)C(=O)N1CC(CC(c3ccccc3)C1)O2 (single isomer, unassigned; diastereomer 1)
ring closure, yield after HPLC (from 3-[[4-(2,6-dimethylphenyl)-6-[(5-phenyl-3-piperidyl)oxy]pyrimidin-2-yl]sulfamoyl]benzoic acid (hydrochloride salt), diastereomer 1, amide bond, 13-membered ring, HATU/DIEA, DMF, 37.8 mM, 25.0 °C, 3 steps): 1%

Molecule: Cc1cccc(C)c1-c1cc2nc(n1)NS(=O)(=O)c1cccc(c1)C(=O)N1CC(O2)C2CCCN(C)C2C1 (single isomer, unassigned; diastereomer 1)
ring closure, yield after HPLC (from Cc1cccc(C)c1-c1cc(OC2CNCC3C2CCCN3C)nc(NS(=O)(=O)c2cccc(C(=O)O)c2)n1, amide bond, 13-membered ring, HATU/DIEA, DMF, 20.5 mM, 25.0 °C, 1.0 h): 54%

Molecule: Cc1cccc(C)c1-c1cc2nc(n1)NS(=O)(=O)c1cccc(c1)C(=O)N1CCN(C(C)C(C)(C)C)C[C@H](C1)O2 (single isomer, unassigned; diastereomer 1)
ring closure, yield after HPLC [2]: 36%

Molecule: Cc1cccc(C)c1-c1cc2nc(n1)NS(=O)(=O)c1cccc(c1)C(=O)N1CC(CC(c3ccccc3)C1)O2 (single isomer, unassigned; diastereomer 2)
ring closure, yield after HPLC (from 3-[[4-(2,6-dimethylphenyl)-6-[(5-phenyl-3-piperidyl)oxy]pyrimidin-2-yl]sulfamoyl]benzoic acid (hydrochloride salt), diastereomer 2, amide bond, 13-membered ring, HATU/DIEA, DMF, 61.9 mM, 25.0 °C, 3 steps): 31%

Molecule: Cc1cccc(C)c1-c1cc2nc(n1)NS(=O)(=O)c1cccc(c1)C(=O)N1CCN(C(=O)OCc3ccccc3)CC(O2)[C@H]1C (single isomer, unassigned; diastereomer 2)
ring closure, yield after HPLC (from Cc1cccc(C)c1-c1cc(Cl)nc(NS(=O)(=O)c2cccc(C(=O)N3CCN(C(=O)OCc4ccccc4)CC(O)[C@H]3C)c2)n1, snar bond, 13-membered ring, NaH, DMF, 30.1 mM, 0.0 °C, 1.5 h): 7%

Molecule: Cc1cccc(C)c1-c1cc2nc(n1)NS(=O)(=O)c1cccc(c1)C(=O)N1CCN(C(C)C(C)(C)C)C[C@H](C1)O2 (single isomer, unassigned; diastereomer 2)
ring closure, yield after HPLC [2]: 33%

Molecule: Cc1cccc(C)c1-c1cc2nc(n1)NS(=O)(=O)c1cccc(c1)C(=O)N1Cc3cc(C(C)(C)C)ccc3C(CO2)C1C (single isomer, unassigned; enantiomer 1)
ring closure, yield after HPLC [3]: 2%

Molecule: Cc1cccc(C)c1-c1cc2nc(n1)NS(=O)(=O)c1cccc(c1)C(=O)N1Cc3cc(C(C)(C)C)ccc3C(CO2)C1C (single isomer, unassigned; enantiomer 2)
ring closure, yield after HPLC [3]: 1%

Ent. A Max Activity (%) ([1]; Enteroid Assay A): + (+ is <30%)
Molecule: Cc1cccc(C)c1-c1cc2nc(n1)NS(=O)(=O)c1cccc(n1)C(=O)N1CCN(CCC(C)(C)C)CC(C1)O2 (centres unmarked) [Compound 70, 18-(3,3-Dimethylbutyl)-12-(2,6-dimethylphenyl)-15-oxa-8λ^6-thia-1,9,11,18,22,23-hexaazatetracyclo[14.4.1.13,7.110,14]tricosa-3,5,7(23),10,12,14(22)-hexaene-2,8,8-trione]
ring closure, yield after HPLC (from Cc1cccc(C)c1-c1cc(OC2CNCCN(CCC(C)(C)C)C2)nc(NS(=O)(=O)c2cccc(C(=O)O)n2)n1, amide bond, 13-membered ring, HATU/DIEA, DMF, 78.0 mM, 25.0 °C, 0.5 h, 2 steps): 1%

Molecule: Cc1cccc(C)c1-c1cc2nc(n1)NS(=O)(=O)c1cccc(c1)C(=O)N1CC[C@H](C1)O2 [Compound 214, (3R)-17-(2,6-Dimethylphenyl)-2-oxa-13λ^6-thia-6,14,16,19-tetraazatetracyclo[13.3.1.13,6.18,12]henicosa-1(19),8(20),9,11,15,17-hexaene-7,13,13-trione]
ring closure, yield after HPLC (from Cc1cccc(C)c1-c1cc(O[C@@H]2CCNC2)nc(NS(=O)(=O)c2cccc(C(=O)O)c2)n1, amide bond, 13-membered ring, HATU/TEA, DMF, 56.8 mM, 25.0 °C, 1.0 h): 17%
